The nature of data set [1]: Determination of hydrolytic stability (5:1 dioxane/buffer, HPLC). It is filed as physicochemical. To be noted: 5:1 dioxane/buffer solution, test ended after 24 or 192 hours, read-out: Hydrolytic stability t1/2. As for the experimental part:
The ester to be analyzed was dissolved in each case in a 5:1 mixture of dioxane and buffer solution (pH 1.2, pH 5.0 or pH 8.0) at 23° C. At different times, the content of ester and hydrolysis products (8S,11R,13S,14S,1 7S)-17-hydroxy-11-[4-((R)-1-hydroxyethyl)phenyl]-13-methyl-17-pentafluoroethyl-1,2,6,7,8,11,12,13,14,15,16,17-dodecahydrocyclopenta[a]phenanthren-3-one and/or (8S,11R,13S,14S,17S)-17-hydroxy-11-[4-((S)-1-hydroxyethyl)phenyl]-1 3-methyl-17-pentafluoroethyl-1,2,6,7,8,11,12,13,14,15,16,17-dodecahydrocyclopenta[a]phenanthren-3-one was determined by HPLC. The test was ended after 24 hours or 192 hours.

The nature of data set [2]: Determination of stability in human plasma. It is filed as in vitro ADME. How it is done: (§1) A stock solution of 1.0 mg of the substance to be tested in a 9:1 mixture of acetonitrile and dimethyl sulphoxide was prepared. 20 μl of this stock solution were added at 37° C. to 1 ml of human plasma or rat plasma. To determine the content, 100 μl samples were each taken at different times. The enzyme activity was blocked by adding 300 μl of acetonitrile, the samples were centrifuged at 5000 rpm over 10 minutes and, in the supernatant, the content of ester and hydrolysis products (8S,11R,13S,14S,17S)-17-hydroxy-11-[4-((R)-1-hydroxyethyl)phenyl]-1 3-methyl-17-pentafluoroethyl-1,2,6,7,8,11,12,13,14,15,16,17-dodecahydrocyclopenta[a]phenanthren-3-one and/or (8S,11R,13S,14S,17S)-17-hydroxy-11-[4-((S)-1-hydroxyethyl)phenyl]-13-methyl-17-pentafluoroethyl-1,2,6,7,8,11,12,13,14,15,16,17-dodecahydrocyclopenta[a]phenanthrene-3-one was determined by HPLC. The concentration-time curves were used to calculate the degradation kinetics. The stability of the substance tested was reported as the half-life.

A short description of data set [3]: Determination of stability in rat plasma. It is filed as in vitro ADME. To be noted: 37° C., read-out: Stability t1/2 in rat plasma (converted). As for the experimental part: as §1
The target in data set [4] is T1, human progesterone receptor A (Homo sapiens, UniProt P06401).
T1 construct: expressed in transfected cells; host or cells: SK-N-MC human neuroblastoma cells, stably transfected with pRChPR-A-neo and pMMTV-LUC
T1 sequence (P06401 1-769 isoform P06401-2): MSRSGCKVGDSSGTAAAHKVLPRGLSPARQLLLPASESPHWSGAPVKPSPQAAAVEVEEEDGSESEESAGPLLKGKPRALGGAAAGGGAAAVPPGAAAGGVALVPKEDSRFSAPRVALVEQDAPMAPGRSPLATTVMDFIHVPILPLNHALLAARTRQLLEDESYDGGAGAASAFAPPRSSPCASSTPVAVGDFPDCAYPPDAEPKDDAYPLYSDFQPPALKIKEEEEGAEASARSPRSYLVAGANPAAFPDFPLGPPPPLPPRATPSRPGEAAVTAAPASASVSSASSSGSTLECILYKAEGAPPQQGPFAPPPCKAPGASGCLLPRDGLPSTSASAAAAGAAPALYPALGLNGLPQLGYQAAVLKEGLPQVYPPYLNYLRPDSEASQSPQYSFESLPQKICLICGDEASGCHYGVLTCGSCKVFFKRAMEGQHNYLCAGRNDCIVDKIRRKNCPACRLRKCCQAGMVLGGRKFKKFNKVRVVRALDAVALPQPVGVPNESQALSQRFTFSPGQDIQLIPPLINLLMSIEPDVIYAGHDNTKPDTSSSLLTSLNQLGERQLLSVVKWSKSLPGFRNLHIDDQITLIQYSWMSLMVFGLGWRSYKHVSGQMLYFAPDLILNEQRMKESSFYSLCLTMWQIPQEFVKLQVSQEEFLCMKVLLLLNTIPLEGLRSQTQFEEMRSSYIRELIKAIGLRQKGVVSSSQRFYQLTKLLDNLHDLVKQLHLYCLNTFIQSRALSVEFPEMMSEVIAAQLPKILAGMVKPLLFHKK
Description: Progesterone receptor transactivation test in stably transfected SK-N-MC cells (PR-A, MMTV-LUC reporter). To be noted: 0.1 nmol/l promegestone, 24 hours, read-out: PR-A IC50 (antagonistic potency). It is filed as cell-based. As for the experimental part:
(§2) Progesterone receptor-antagonistic action in stable transfectants of human neuroblastoma cells (SK-N-MC cells) with the human progesterone A or progesterone B receptor and an MN-LUC reporter construct SK-N-MC cells (human neuroblastoma cells) which have been stably transfected with plasmids expressing the human progesterone receptor B (pRChPR-B-neo) or the human progesterone receptor A (pRChPR-A-neo) and a reporter construct (pMMTV-LUC) were incubated for 24 hours either in the absence (negative control) or in the presence of ascending amounts of the particular test compound (0.01 nmol/l, 0.1 nmol/l, 1 […], 100 nmol/l and […]), in order to determine the agonistic efficacy. As a positive control of the reporter gene induction, the cells were treated with the synthetic gestagen promegestone (0.01 nmol/l, 0.1 nmol/l, 1 nmol/l, 10 nmol/l, 100 nmol/l and […]). To determine the antagonistic activity, the cells were treated with 0.1 nmol/l promegestone and additionally with ascending amounts of the particular test compound (0.01 nmol/l, 0.1 nmol/l, 1 nmol/l, 10 nmol/l, 100 nmol/l and […]). The activity of the reporter gene LUC (LUC=luciferase) was determined in the cell lysates and measured as RLU (relative light units). All measurements are reported as % efficacy and as EC50 and IC50 concentrations.

Data set [5] addresses T2, human progesterone receptor B (Homo sapiens, UniProt P06401).
T2 construct: expressed in transfected cells; host or cells: SK-N-MC human neuroblastoma cells, stably transfected with pRChPR-B-neo and pMMTV-LUC
T2 sequence (P06401 1-933): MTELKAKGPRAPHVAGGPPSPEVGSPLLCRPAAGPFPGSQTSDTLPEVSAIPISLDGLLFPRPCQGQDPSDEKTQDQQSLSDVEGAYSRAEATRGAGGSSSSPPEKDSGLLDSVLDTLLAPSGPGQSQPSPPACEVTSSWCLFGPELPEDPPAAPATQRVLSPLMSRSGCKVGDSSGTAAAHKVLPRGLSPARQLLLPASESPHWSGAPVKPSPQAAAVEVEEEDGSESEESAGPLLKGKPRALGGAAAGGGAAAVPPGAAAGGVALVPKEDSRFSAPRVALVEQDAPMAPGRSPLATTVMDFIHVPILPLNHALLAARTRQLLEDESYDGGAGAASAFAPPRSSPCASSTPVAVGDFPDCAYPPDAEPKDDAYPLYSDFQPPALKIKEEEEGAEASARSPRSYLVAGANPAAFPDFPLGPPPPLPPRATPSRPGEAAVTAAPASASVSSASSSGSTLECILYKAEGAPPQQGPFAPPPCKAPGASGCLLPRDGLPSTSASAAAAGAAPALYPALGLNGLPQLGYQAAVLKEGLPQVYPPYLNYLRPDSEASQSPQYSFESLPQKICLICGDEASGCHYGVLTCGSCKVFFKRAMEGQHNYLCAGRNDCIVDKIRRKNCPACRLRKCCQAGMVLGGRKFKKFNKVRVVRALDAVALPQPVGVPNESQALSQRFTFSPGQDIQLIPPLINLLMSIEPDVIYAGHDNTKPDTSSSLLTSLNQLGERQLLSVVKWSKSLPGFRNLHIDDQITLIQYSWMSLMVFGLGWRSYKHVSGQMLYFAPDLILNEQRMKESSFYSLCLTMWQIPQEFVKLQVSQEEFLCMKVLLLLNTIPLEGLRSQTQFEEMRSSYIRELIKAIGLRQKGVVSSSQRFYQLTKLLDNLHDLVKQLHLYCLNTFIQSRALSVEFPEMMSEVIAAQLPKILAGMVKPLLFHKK
Kind of data set: Progesterone receptor transactivation test in stably transfected SK-N-MC cells (PR-B, MMTV-LUC reporter). It is filed as cell-based. Conditions: 0.1 nmol/l promegestone, 24 hours, read-out: PR-B IC50 (antagonistic potency). As for the experimental part:
as §2

Where only a bound is given, the exact number is not on record here.

As a reminder, the IC50 is the point on the concentration scale where inhibition reaches its midpoint.

Take `C=CCOC(=O)N[C@H](C(=O)OC(C)c1ccc([C@H]2C[C@@]3(C)C(CC[C@@]3(O)C(F)(F)C(F)(F)F)C3CCC4=CC(=O)CCC4=C32)cc1)C(C)C` (mixture of isomers) [Example 16, (S)-2-Allyloxycarbonylamino-3-methylbutyric acid (RS)-1-[4-((8S,11R,13S,14S,17S)-17-hydroxy-1 3-methyl-3-oxo-1 7-pentafluoroethyl-2,3,6,7,8,11,12,13,14,15,16,17-dodecahydro-1H-cyclopenta[a]phenanthren-11-yl)phenyl]ethyl ester]: the half-life in data set [1] (pH = 1.2, 23° C.) is above 192 h; in data set [1] (pH = 8.0, 23° C.) it was above 192 h; in data set [2] (37° C., read-out: Stability t1/2 in human plasma (converted)), above 1000 h; in data set [2] (method of working example 19, summary statement in description, read-out: half-life in human plasma), above 100 h; in data set [3] it was 33.2 h. For the same compound, the IC50 in data set [4] was 0.11 nM; in data set [5], 0.71 nM.
